Data published in ChEMBL document CHEMBL1201862, “PubChem BioAssay data set” (2004).
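A five-concentration, 48-hour dose response in 96-well plates underlies each endpoint, interpolated linearly between surrounding concentrations. Abbreviation: GI50, concentration required for 50% inhibition of growth.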 The source made the active and inactive calls. No stated cut-off is given here; in the data, active = GI50 up to about 1.1 µM and inactive = higher.

Assays:
Assay in all cases: inhibition of tumour cell growth, NCI panel, 48 h
HCT-116 = system: HCT-116
Malme-3M = system: Malme-3M
TK-10 = system: TK-10
KM-20L2 = system: KM-20L2
A549 = system: A549
NCI-H522 = system: NCI-H522
SW-620 = system: SW-620
SNB-75 = system: SNB-75
RXF 631 = system: RXF 631
OVCAR-5 = system: OVCAR-5
SK-MEL-2 = system: SK-MEL-2
UACC-257 = system: UACC-257
UO-31 = system: UO-31
HOP-92 = system: HOP-92
HOP-62 = system: HOP-62
RPMI-8226 = system: RPMI-8226
COLO 205 = system: COLO 205
U-251 = system: U-251
MOLT-4 = system: MOLT-4
DLD-1 = system: DLD-1
HT-29 = system: HT-29
UACC-62 = system: UACC-62
NCI-H226 = system: NCI-H226
SF-539 = system: SF-539
IGROV-1 = system: IGROV-1
KM12 = system: KM12
SNB-19 = system: SNB-19
786-0 = system: 786-0
SK-MEL-28 = system: SK-MEL-28
SR = system: SR
SF-268 = system: SF-268
HCC 2998 = system: HCC 2998
K562 = system: K562
HL-60 = system: HL-60
CAKI-1 = system: CAKI-1
ACHN = system: ACHN
DMS-273 = system: DMS-273
M19-MEL = system: M19-MEL
SN12C = system: SN12C
NCI-H23 = system: NCI-H23
NCI-H460 = system: NCI-H460
OVCAR-8 = system: OVCAR-8
SK-OV-3 = system: SK-OV-3
SF-295 = system: SF-295
HCT-15 = system: HCT-15
SNB-78 = system: SNB-78
OVCAR-4 = system: OVCAR-4
M14 = system: M14
OVCAR-3 = system: OVCAR-3
LOX IMVI = system: LOX IMVI
XF498 = system: XF498
SK-MEL-5 = system: SK-MEL-5
CCRF-CEM = system: CCRF-CEM
RXF 393 = system: RXF 393
LXFL 529 = system: LXFL 529
EKVX = system: EKVX
HOP-18 = system: HOP-18
A498 = system: A498
DMS-114 = system: DMS-114

In the case of `O=C(COc1ccc(Cl)cc1)N1N=C(c2ccc([N+](=O)[O-])o2)CC1(O)c1ccccc1` (centres undefined), the GI50 (HCT-116) is reported as 5.27 µM (inactive), the GI50 (Malme-3M) is reported as 10.4 µM (inactive) and the GI50 (TK-10) is reported as 8.63 µM (inactive). The GI50 (KM-20L2) was 12.3 µM (inactive), the GI50 (A549) was 10 µM (inactive) and the GI50 (NCI-H522) was 15.5 µM (inactive). For the same compound, the GI50 (SW-620) was 4.71 µM (inactive), the GI50 (SNB-75) was > 10 µM (inactive) and the GI50 (RXF 631) was 7.87 µM (inactive). For the same compound, the GI50 (OVCAR-5) was 15.8 µM (inactive), the GI50 (SK-MEL-2) was 7.24 µM (inactive) and the GI50 (UACC-257) was 4.05 µM (inactive). For the same compound, the GI50 (UO-31) was 11.4 µM (inactive), the GI50 (HOP-92) was 20.2 µM (inactive) and the GI50 (HOP-62) was 20 µM (inactive). For the same compound, the GI50 (RPMI-8226) was 2.28 µM (inactive), the GI50 (COLO 205) was 3.52 µM (inactive) and the GI50 (U-251) was 4.94 µM (inactive). The GI50 (MOLT-4) was 3.42 µM (inactive), the GI50 (DLD-1) was 4.66 µM (inactive) and the GI50 (HT-29) was 4.81 µM (inactive). The GI50 (UACC-62) was 3.87 µM (inactive), the GI50 (NCI-H226) was 28.2 µM (inactive) and the GI50 (SF-539) was 13.1 µM (inactive). For the same compound, the GI50 (IGROV-1) was 6.24 µM (inactive), the GI50 (KM12) was 6.58 µM (inactive) and the GI50 (SNB-19) was 11.9 µM (inactive). The GI50 (786-0) was 7.62 µM (inactive), the GI50 (SK-MEL-28) was 12.2 µM (inactive) and the GI50 (SR) was 2.59 µM (inactive). The GI50 (SF-268) was 10.5 µM (inactive), the GI50 (HCC 2998) was 4.11 µM (inactive) and the GI50 (K562) was 3.72 µM (inactive). For the same compound, the GI50 (HL-60) was 1.77 µM (inactive), the GI50 (CAKI-1) was 17.4 µM (inactive) and the GI50 (ACHN) was 6.03 µM (inactive). The GI50 (DMS-273) was 5.28 µM (inactive), the GI50 (M19-MEL) was 2.44 µM (inactive) and the GI50 (SN12C) was 4.44 µM (inactive). For the same compound, the GI50 (NCI-H23) was 2.03 µM (inactive), the GI50 (NCI-H460) was 11.1 µM (inactive) and the GI50 (OVCAR-8) was 5.62 µM (inactive). For the same compound, the GI50 (SK-OV-3) was 19.3 µM (inactive), the GI50 (SF-295) was 10.7 µM (inactive) and the GI50 (HCT-15) was 3.05 µM. For the same compound, the GI50 (SNB-78) was 13.8 µM (inactive), the GI50 (OVCAR-4) was 7.11 µM (inactive) and the GI50 (M14) was 11.8 µM (inactive). The GI50 (OVCAR-3) was 3.77 µM (inactive), the GI50 (LOX IMVI) was 10.8 µM (inactive) and the GI50 (XF498) was 10.5 µM (inactive).

In the case of `COC[C@H](C)/N=C/N1CCc2ccccc2C1(Cc1ccccc1)Cc1ccccc1`, the GI50 (HCT-116) is reported as 10.8 µM (inactive), the GI50 (Malme-3M) is reported as 11.8 µM (inactive) and the GI50 (TK-10) is reported as 17.8 µM (inactive). For the same compound, the GI50 (KM-20L2) was 10.8 µM (inactive), the GI50 (A549) was 30.4 µM (inactive) and the GI50 (NCI-H522) was 12.7 µM (inactive). The GI50 (SW-620) was 22.6 µM (inactive), the GI50 (SNB-75) was 17.8 µM (inactive) and the GI50 (RXF 631) was 13.5 µM (inactive). The GI50 (SK-MEL-5) was 47.9 µM (inactive), the GI50 (SK-MEL-2) was 10.6 µM (inactive) and the GI50 (UACC-257) was 13.8 µM (inactive). For the same compound, the GI50 (UO-31) was 12.9 µM (inactive), the GI50 (HOP-92) was 15.6 µM (inactive) and the GI50 (HOP-62) was 24.8 µM (inactive). For the same compound, the GI50 (RPMI-8226) was 15.8 µM (inactive), the GI50 (COLO 205) was 13.5 µM (inactive) and the GI50 (U-251) was 13.8 µM (inactive). The GI50 (MOLT-4) was 10.4 µM (inactive), the GI50 (DLD-1) was 8.18 µM (inactive) and the GI50 (HT-29) was 5.07 µM (inactive). The GI50 (CCRF-CEM) was 12.9 µM (inactive), the GI50 (UACC-62) was 26.9 µM (inactive) and the GI50 (NCI-H226) was 18.5 µM (inactive). The GI50 (SF-539) was 18.2 µM (inactive), the GI50 (IGROV-1) was 68.1 µM (inactive) and the GI50 (KM12) was 13.6 µM (inactive). For the same compound, the GI50 (SNB-19) was 17.3 µM (inactive), the GI50 (786-0) was 16.5 µM (inactive) and the GI50 (SK-MEL-28) was 11.1 µM (inactive). For the same compound, the GI50 (SR) was 11.6 µM (inactive), the GI50 (SF-268) was 21.9 µM (inactive) and the GI50 (RXF 393) was 15.2 µM (inactive). The GI50 (K562) was 6.97 µM (inactive), the GI50 (LXFL 529) was 11.8 µM (inactive) and the GI50 (HL-60) was 6.17 µM (inactive). For the same compound, the GI50 (CAKI-1) was 16.3 µM (inactive), the GI50 (ACHN) was 21.2 µM (inactive) and the GI50 (SN12C) was 10.3 µM (inactive). For the same compound, the GI50 (NCI-H23) was 17.2 µM (inactive), the GI50 (NCI-H460) was 12 µM (inactive) and the GI50 (EKVX) was 29.9 µM (inactive). The GI50 (OVCAR-8) was 15.1 µM (inactive), the GI50 (SK-OV-3) was 16.9 µM (inactive) and the GI50 (SF-295) was 14.5 µM (inactive). The GI50 (HCT-15) was 11 µM, the GI50 (HOP-18) was 11 µM (inactive) and the GI50 (OVCAR-4) was 12.8 µM (inactive). The GI50 (M14) was 10.3 µM (inactive), the GI50 (OVCAR-3) was 22.1 µM (inactive) and the GI50 (XF498) was 12.3 µM (inactive).

In the case of `CCCCCCCCCCCC(=O)OCCOCCOCCOCCOCCOC(=O)CCCCCCCCCCC`, the GI50 (HCT-116) is reported as > 100 µM (inactive), the GI50 (Malme-3M) is reported as > 100 µM (inactive) and the GI50 (TK-10) is reported as > 100 µM (inactive). For the same compound, the GI50 (KM-20L2) was > 100 µM (inactive), the GI50 (A549) was > 100 µM (inactive) and the GI50 (NCI-H522) was > 100 µM (inactive). For the same compound, the GI50 (SW-620) was > 100 µM (inactive), the GI50 (SNB-75) was > 100 µM (inactive) and the GI50 (RXF 631) was > 100 µM (inactive). For the same compound, the GI50 (OVCAR-5) was > 100 µM (inactive), the GI50 (SK-MEL-5) was > 100 µM (inactive) and the GI50 (SK-MEL-2) was > 100 µM (inactive). For the same compound, the GI50 (UACC-257) was > 100 µM (inactive), the GI50 (UO-31) was > 100 µM (inactive) and the GI50 (HOP-92) was > 100 µM (inactive). For the same compound, the GI50 (HOP-62) was > 100 µM (inactive), the GI50 (RPMI-8226) was > 100 µM (inactive) and the GI50 (COLO 205) was > 100 µM (inactive). The GI50 (U-251) was > 100 µM (inactive), the GI50 (MOLT-4) was > 100 µM (inactive) and the GI50 (DLD-1) was > 100 µM (inactive). The GI50 (HT-29) was > 100 µM (inactive), the GI50 (CCRF-CEM) was > 100 µM (inactive) and the GI50 (UACC-62) was 56.2 µM (inactive). The GI50 (NCI-H226) was > 100 µM (inactive), the GI50 (IGROV-1) was > 100 µM (inactive) and the GI50 (KM12) was > 100 µM (inactive). For the same compound, the GI50 (SNB-19) was > 100 µM (inactive), the GI50 (786-0) was > 100 µM (inactive) and the GI50 (SK-MEL-28) was > 100 µM (inactive). The GI50 (SR) was > 100 µM (inactive), the GI50 (SF-268) was > 100 µM (inactive) and the GI50 (RXF 393) was > 100 µM (inactive). The GI50 (HCC 2998) was > 100 µM (inactive), the GI50 (K562) was > 100 µM (inactive) and the GI50 (LXFL 529) was > 100 µM (inactive). The GI50 (HL-60) was 37.6 µM (inactive), the GI50 (CAKI-1) was > 100 µM (inactive) and the GI50 (ACHN) was > 100 µM (inactive). The GI50 (DMS-273) was > 100 µM (inactive), the GI50 (M19-MEL) was > 100 µM (inactive) and the GI50 (SN12C) was > 100 µM (inactive). The GI50 (NCI-H23) was > 100 µM (inactive), the GI50 (NCI-H460) was > 100 µM (inactive) and the GI50 (EKVX) was > 100 µM (inactive). For the same compound, the GI50 (OVCAR-8) was > 100 µM (inactive), the GI50 (SK-OV-3) was > 100 µM (inactive) and the GI50 (SF-295) was > 100 µM (inactive). For the same compound, the GI50 (HCT-15) was greater than 100 µM, the GI50 (SNB-78) was > 100 µM (inactive) and the GI50 (HOP-18) was > 100 µM (inactive). The GI50 (OVCAR-4) was > 100 µM (inactive), the GI50 (M14) was > 100 µM (inactive) and the GI50 (OVCAR-3) was > 100 µM (inactive). For the same compound, the GI50 (LOX IMVI) was > 100 µM (inactive), the GI50 (A498) was > 100 µM (inactive) and the GI50 (DMS-114) was > 100 µM (inactive).
